Data from patent US20040166509A1, “Detecting hormonally active compounds” (priority 2002, published 2004).

Tests used:
[1] = tested on: hepatic mRNA of adult male SHMs; assay: SHM cDNA macroarray (30 genes): hepatic gene expression profiles of exposed fish; format: in vivo, sheepshead minnow (SHM)
hepatic RNA of LMB = assay: LMB gene array (132 genes): hepatic gene expression after IP injection; format: in vivo, largemouth bass (LMB); settings: two-fold cutoff vs control; for LMB83 vitellogenin-2 (Vtg 2) expression / LMB87 vitellogenin-1 (Vtg 1) expression / LMB97 choriogenin-3 expression / LMB108-1 choriogenin-2 expression / LMB47-2 (clone 47-2) expression: male LMB liver; for LMB83 vitellogenin-2 (Vtg 2) expression / LMB87 vitellogenin-1 (Vtg 1) expression / LMB97 choriogenin-3 expression / LMB108-1 choriogenin-2 expression: 48 h after single IP dose: E2 2.5 mg/kg, 4-NP 50 mg/kg or p,p′-DDE 100 mg/kg
[2] = Estrogen receptor alpha (clone ID not given)
[3] = clone SHM2-1: vitellogenin alpha (2)
[4] = clone SHM72-3: Coagulation Factor XI
[5] = clone SHM76-2: Alphal-microglobulin/bikunin precursor (AMBP) protein
[6] = male SHM liver, EE2 24, 109 or 832 ng/L, 4 days
[7] = female LMB liver, 48 h after single IP p,p′-DDE 100 mg/kg
[8] = female LMB liver, 48 h after single IP p,p′-DDE 100 mg/kg, listed as p, p′-DDE

CC/C(=C(/CC)c1ccc(O)cc1)c1ccc(O)cc1 [DES, diethylstilbestrol]
Regulation [1, 2]: up-reg E2; EE2, | Regulation [1, 3]: up-reg E2; EE2, | Regulation ([1]; clone SHM11: Transferrin): dn-reg E2; EE2, | Regulation [1, 4]: up-reg E2; EE2, | Regulation [1, 5]: d-reg E2; EE2,

C#C[C@]1(O)CC[C@H]2[C@@H]3CCc4cc(O)ccc4[C@H]3CC[C@@]21C [EE2, 17α-ethynyl estradiol]
Regulation [1, 2]: up-reg E2; EE2, | Regulation [1, 3]: up-reg E2; EE2, | Regulation ([1]; clone SHM11: Transferrin): dn-reg E2; EE2, | Regulation [1, 4]: up-reg E2; EE2, | Regulation [1, 5]: d-reg E2; EE2, | ER α expression, EE2 dose response [1, 6]: increase in a concentration dependent manner | Vtg α expression, EE2 dose response [1, 6]: increase in a concentration dependent manner | Vtg β expression, EE2 dose response [1, 6]: increase in a concentration dependent manner | alpha-1-microglobulin/bikunin precursor protein expression, EE2 dose response [1, 6]: decrease in a dose-dependent manner | beta actin expression, EE2 dose response [1, 6]: decrease in a dose-dependent manner | choriogenin 2 expression, EE2 dose response [1, 6]: increase in a concentration dependent manner | choriogenin 3 expression, EE2 dose response [1, 6]: increase in a concentration dependent manner | clone ND107-B expression, EE2 dose response [1, 6]: increase in a concentration dependent manner | transferrin expression, EE2 dose response [1, 6]: decrease in a dose-dependent manner

COc1ccc(C(c2ccc(OC)cc2)C(Cl)(Cl)Cl)cc1 [MXC, methoxychlor]
Regulation [1, 2]: up-reg E2; EE2, | Regulation [1, 3]: up-reg E2; EE2, | Regulation ([1]; clone SHM11: Transferrin): dn-reg E2; EE2, | Regulation [1, 4]: up-reg E2; EE2, | Regulation [1, 5]: d-reg E2; EE2,

ClC(Cl)=C(c1ccc(Cl)cc1)c1ccc(Cl)cc1 [p,p′-DDE]
LMB5 vitellogenin-2A expression, female (hepatic RNA of LMB; [7]): NP; Dn-reg | LMB50-1 (clone 50-1) expression, female (hepatic RNA of LMB; [7]): Down reg NP; | LMB53-1 (clone 53-1) expression, female (hepatic RNA of LMB; [7]): Down-reg. E2; | LMB71-1 (clone 71-1) expression, female (hepatic RNA of LMB; [7]): down-reg | LMB83 vitellogenin-2 expression, female (hepatic RNA of LMB; [7]): dn-reg DDE(F) | LMB87 vitellogenin-1 expression, female (hepatic RNA of LMB; [7]): dn-reg DDE(F) | LMB94-1 transferrin expression, female (hepatic RNA of LMB; [7]): Down-reg. | LMB101-1 (clone 101-1) expression, female (hepatic RNA of LMB; [7]): Dn | LMB102-1 chemotaxin expression, female (hepatic RNA of LMB; [7]): down-reg | LMB107-1 (clone 107-1) expression, female (hepatic RNA of LMB; [7]): down-reg | LMB108-1 choriogenin-2 expression, female (hepatic RNA of LMB; [7]): DDE(M); Dn- | LMB112-1 cathepsin (Aspartic protease) expression, female (hepatic RNA of LMB; [7]): DHT; Dn-DDE (F) | LMB118-1 apolipoprotein precursor (clone 118-1) expression, female (hepatic RNA of LMB; [7]): down-reg | LMB120-1 hypothetical protein (clone 120-1) expression, female (hepatic RNA of LMB; [7]): donw-reg | LMB128-1 (clone 128-1) expression, female (hepatic RNA of LMB; [7]): down-reg | LMB141 vitellogenin-3 expression, female (hepatic RNA of LMB; [7]): dn DDE (F) | LMB150 androgen receptor expression, female (hepatic RNA of LMB; [7]): Dn-reg DDE(F) | four Vtg's expression, female (hepatic RNA of LMB; [7]): down-regulated | genes up-regulated in female fish (hepatic RNA of LMB; [7]): no genes were identified as up-regulated | LMB50-1 (clone 50-1) expression, female (hepatic RNA of LMB; [8]): down-regulated | LMB53-1 (clone 53-1) expression, female (hepatic RNA of LMB; [8]): down-regulated | LMB71-1 (clone 71-1) expression, female (hepatic RNA of LMB; [8]): down-regulated | LMB94-1 transferrin expression, female (hepatic RNA of LMB; [8]): down-regulated | LMB101-1 (clone 101-1) expression, female (hepatic RNA of LMB; [8]): down-regulated | LMB102-1 chemotaxin expression, female (hepatic RNA of LMB; [8]): down-regulated | LMB107-1 (clone 107-1) expression, female (hepatic RNA of LMB; [8]): down-regulated | LMB108-1 choriogenin-2 expression, female (hepatic RNA of LMB; [8]): down-regulated | LMB112-1 cathepsin (Aspartic protease) expression, female (hepatic RNA of LMB; [8]): down-regulated | LMB118-1 apolipoprotein precursor (clone 118-1) expression, female (hepatic RNA of LMB; [8]): down-regulated | LMB120-1 hypothetical protein (clone 120-1) expression, female (hepatic RNA of LMB; [8]): down-regulated | LMB128-1 (clone 128-1) expression, female (hepatic RNA of LMB; [8]): down-regulated | LMB150 androgen receptor expression, female (hepatic RNA of LMB; [8]): down-regulated | LMB83 vitellogenin-2 (Vtg 2) expression (hepatic RNA of LMB): up-reg E2; | LMB87 vitellogenin-1 (Vtg 1) expression (hepatic RNA of LMB): up-reg E2; | LMB97 choriogenin-3 expression (hepatic RNA of LMB): Up-reg E2; | LMB108-1 choriogenin-2 expression (hepatic RNA of LMB): Up-reg E2; NP; | LMB83 vitellogenin-2 (Vtg 2) expression (hepatic RNA of LMB; listed as p, p′-DDE): up-regulated | LMB87 vitellogenin-1 (Vtg 1) expression (hepatic RNA of LMB; listed as p, p′-DDE): up-regulated | LMB97 choriogenin-3 expression (hepatic RNA of LMB; listed as p, p′-DDE): up-regulated | LMB108-1 choriogenin-2 expression (hepatic RNA of LMB; listed as p, p′-DDE): up-regulated | LMB47-2 (clone 47-2) expression (hepatic RNA of LMB; 48 h after single IP p,p′-DDE 100 mg/kg): Down-reg | LMB47-2 (clone 47-2) expression (hepatic RNA of LMB; 48 h after single IP p,p′-DDE 100 mg/kg, listed as p, p′-DDE): down-regulated
